Test results reported in paper PMC7616463, “Peptidic boronic acid Plasmodium falciparum SUB1 inhibitors with improved selectivity over human proteasome” (Journal of medicinal chemistry, 2024).

Target: T1, recombinant PfSUB1 (rPfSUB1) (Plasmodium falciparum, UniProt Q8I0V0)
T1 construct: made in house
Assay: PfSUB1 enzyme assay (recombinant PfSUB1, fluorogenic peptide substrate)
Type: biochemical
Conditions: for IC50: rPfSUB1, substrate SERA4st1F-6R12 0.1 μM, 5 min preincubation, pH 8.2, fluorescence, duplicate, read-out: IC50, nM PfSUB1 inhibition
Description: The proteolytic activity of rPfSUB1 was monitored by the cleavage of the fluorogenic peptidic substrate SERA4st1F-6R12 (Ac-[…]-OH) and has been described previously.[28] Briefly, chymotrypsin treated rPfSUB1 (expressed and purified as described before […] was stored at −80 °C as a 228 U/mL stock in 20 mM Tris−HCl pH 8.2, 150 mM NaCl, 10% glycerol, and diluted for use (1:500) in reaction buffer (20 mM Tris−HCl pH 8.2, 150 mM NaCl, 12 mM CaCl2, 25 mM CHAPS). Peptidic boronic acid inhibitors were dissolved in 100% DMSO at 20 mM, then further diluted in DMSO to generate stock solutions ranging from 500 to 0.01 μM and then used diluted 1:100 in the enzyme reactions. All reactions were performed in wells of white 96-well microwell plates (Nunc); 50 μL diluted rPfSUB1 was preincubated for 5 min with 1 μL each of the serially diluted boronic acid inhibitors, followed by addition of 50 μL substrate solution (0.1 μM final). Subsequent fluorescence increase was continuously monitored using a SpectraMax M5e plate reader and SoftMax Pro-6.3 software, with readings taken every 3 min for 60 min using excitation and emission values of 552 and 580 nm, respectively. […] All experiments were performed in duplicate.

T1 sequence (Q8I0V0 218-688): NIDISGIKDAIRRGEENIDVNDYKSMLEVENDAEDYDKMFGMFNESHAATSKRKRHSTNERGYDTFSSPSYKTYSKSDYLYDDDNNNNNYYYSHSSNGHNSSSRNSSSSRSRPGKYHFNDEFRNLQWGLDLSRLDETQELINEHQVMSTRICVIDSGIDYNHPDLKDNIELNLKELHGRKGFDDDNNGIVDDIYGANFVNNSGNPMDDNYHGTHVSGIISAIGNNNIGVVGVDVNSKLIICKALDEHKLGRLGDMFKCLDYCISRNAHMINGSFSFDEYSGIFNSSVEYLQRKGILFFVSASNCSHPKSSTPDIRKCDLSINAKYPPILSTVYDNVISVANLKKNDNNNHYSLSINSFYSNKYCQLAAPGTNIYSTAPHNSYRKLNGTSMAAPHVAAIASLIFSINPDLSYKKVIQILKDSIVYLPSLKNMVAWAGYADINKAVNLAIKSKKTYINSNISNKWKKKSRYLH

## CC(=O)N[C@H](C(=O)N[C@H](C(=O)NCC(=O)N[C@@H](C)B(O)O)C(C)(C)C)C1CCCC1 [2a, ((2R,8S,11S)-8-(tert-butyl)-11-cyclopentyl-4,7,10,13-tetraoxo-3,6,9,12-tetraazatetradecan-2-yl)boronic acid]
  IC50: 2.1 ± 0.1 nM

## CC(=O)N[C@H](C(=O)N[C@H](C(=O)NCC(=O)N[C@@H](C)B(O)O)c1ccccc1)C1CCCC1 [2b, ((2R,8S,11S)-11-cyclopentyl-4,7,10,13-tetraoxo-8-phenyl-3,6,9,12-tetraazatetradecan-2-yl)boronic acid]
  IC50: 2.8 ± 0.1 nM

## CC(=O)N[C@H](C(=O)N[C@@H](CC1CCCC1)C(=O)NCC(=O)N[C@@H](C)B(O)O)C1CCCC1 [2c, ((2R,8S,11S)-11-cyclopentyl-8-(cyclopentylmethyl)-4,7,10,13-tetraoxo-3,6,9,12-tetra-azatetradecan-2-yl)boronic acid]
  IC50: 7.5 ± 0.8 nM

## CC(=O)N[C@H](C(=O)N[C@@H](CC1CCCCC1)C(=O)NCC(=O)N[C@@H](C)B(O)O)C1CCCC1 [2d, ((2R,8S,11S)-8-(cyclohexylmethyl)-11-cyclopentyl-4,7,10,13-tetraoxo-3,6,9,12-tetra-azatetradecan-2-yl)boronic acid]
  IC50: 6.7 ± 0.3 nM

## CC(=O)N[C@H](C(=O)N[C@@H](CC(C)(C)C)C(=O)NCC(=O)N[C@@H](C)B(O)O)C1CCCC1 [2e, ((2R,8S,11S)-11-cyclopentyl-8-neopentyl-4,7,10,13-tetraoxo-3,6,9,12-tetraazatetra-decan-2-yl)boronic acid]
  IC50: 43.5 ± 2.7 nM
rPfSUB1 IC50 vs 2a
  fold decreased PfSUB1 potency compared to homologue 2a: ~ 20 fold

## CC[C@H](C)[C@H](NC(=O)[C@@H](NC(C)=O)C1CCCC1)C(=O)NCC(=O)N[C@@H](C)B(O)O [2f, ((2R,8S,11S)-8-((S)-sec-butyl)-11-cyclopentyl-4,7,10,13-tetraoxo-3,6,9,12-tetraaza-tetradecan-2-yl)boronic acid]
  IC50: 5.4 ± 0.1 nM

## CC(=O)N[C@H](C(=O)N[C@@H](CC(C)C)C(=O)NCC(=O)N[C@@H](C)B(O)O)C1CCCC1 [2g, ((2R,8S,11S)-11-cyclopentyl-8-isobutyl-4,7,10,13-tetraoxo-3,6,9,12-tetraazatetra-decan-2-yl)boronic acid]
  IC50: 7.8 ± 0.1 nM

## CC(=O)N[C@H](C(=O)N[C@@H](Cc1ccccc1)C(=O)NCC(=O)N[C@@H](C)B(O)O)C1CCCC1 [2h, ((2R,8S,11S)-8-benzyl-11-cyclopentyl-4,7,10,13-tetraoxo-3,6,9,12-tetraazatetradecan-2-yl)boronic acid]
  IC50: 6.9 ± 2.6 nM

## CC[C@H](C)[C@H](NC(=O)[C@@H](NC(=O)c1cc(C)cc(C)c1)C1CCCC1)C(=O)NCC(=O)N[C@@H](C)B(O)O [3c, ((3S,6S,12R)-6-((S)-sec-butyl)-3-cyclopentyl-1-(3,5-dimethylphenyl)-1,4,7,10-tetra-oxo-2,5,8,11-tetraazatridecan-12-yl)boronic acid]
  IC50: 6.9 ± 0.3 nM

## CC[C@H](C)[C@H](NC(=O)[C@@H](NC(=O)C(C)C)C1CCCC1)C(=O)NCC(=O)N[C@@H](C)B(O)O [3e, ((2R,8S,11S)-8-((S)-sec-butyl)-11-cyclopentyl-14-methyl-4,7,10,13-tetraoxo-3,6,9,12-tetraazapentadecan-2-yl)boronic acid]
  IC50: 3.9 ± 0.3 nM

## CC[C@H](C)[C@H](NC(=O)[C@@H](NC(=O)C(C)(C)C)C1CCCC1)C(=O)NCC(=O)N[C@@H](C)B(O)O [3f, ((2R,8S,11S)-8-((S)-sec-butyl)-11-cyclopentyl-14,14-dimethyl-4,7,10,13-tetraoxo-3,6,9,12-tetraazapentadecan-2-yl)boronic acid]
  IC50: 3.9 ± 0.3 nM

## CC[C@H](C)[C@H](NC(=O)[C@@H](NC(=O)C1CCC1)C1CCCC1)C(=O)NCC(=O)N[C@@H](C)B(O)O [3g, ((3S,6S,12R)-6-((S)-sec-butyl)-1-cyclobutyl-3-cyclopentyl-1,4,7,10-tetraoxo-2,5,8,11-tetraazatridecan-12-yl)boronic acid]
  IC50: 2 ± 0.1 nM
